Measured values reported in publication PMC6886544.
Values joined by “and” are separate entries in the source; they are usually repeats but may differ in a detail not shown here. Identical values can stand only once. Like-named read-outs stand apart in the source and are kept apart here.

Columns and labels:
[1] = Microsomal stability (phase I), mouse; assay type: in vitro ADME; settings: mouse liver microsomes, up to 60 minutes, 37 °C
Method: Microsomal stability (phase I) assay.
Metabolic stability under oxidative conditions was measured in liver microsomes from different
time up to 50 minutes (HLM) or 60 minutes (MLM) at 37 °C. Based on the compound half-life t1/2,
the in vitro intrinsic clearance CLint was calculated. […]

A549 cells (KRAS mutant) = assay: CellTiter-Glo viability assay, A549; settings: Homo sapiens, A549, 96 h, read-out: KRAS CTG EC50 A549
[2] = system: A431 cells (EGFR wild type); assay: CellTiter-Glo viability assay, A431; settings: Homo sapiens, A-431, 96 h, read-out: EGFR CTG EC50 A431, A431, 96 hours, CellTiter-Glo
EGFR-wt = EGFR-wt (Homo sapiens, UniProt P00533); assay: HTRF KinEASE-TK activity-based assay, EGFR-wt
EGFR-L858R/T790M = EGFR-L858R/T790M (Homo sapiens, UniProt P00533, L858R/T790M); assay: HTRF KinEASE-TK activity-based assay, EGFR-L858R/T790M
[3] = system: H1975 cells (EGFR-L858R/T790M); assay: CellTiter-Glo viability assay, H1975
[4] = system: HCC827 cells (EGFR-delE746_A750); assay: CellTiter-Glo viability assay, HCC827; assay type: cell-based; settings: Homo sapiens; HCC827, 96 hours, CellTiter-Glo; read-out: EGFR CTG EC50 HCC827;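 further: luminescence from ATP content as a measure of metabolically active cells, in RPMI with 10% FBS, compound added as serial dilutions after 24 h of preculture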
EGFR-L858R = EGFR-L858R (Homo sapiens, UniProt P00533, L858R); assay: HTRF KinEASE-TK activity-based assay, EGFR-L858R
H358 cells (KRAS mutant) = assay: CellTiter-Glo viability assay, H358; assay type: cell-based; settings: Homo sapiens, read-out: KRAS CTG EC50 H358;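 further: viable cell number estimated from ATP-dependent luminescence following exposure to serially diluted inhibitor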
[5] = EGFR HTRF IC50 wt, ATP at Km (9.5 µM), 30 min preincubation, mean ± SD of three independent measurements in duplicates
[6] = EGFR HTRF IC50 L858R/T790M, ATP at Km (4 µM), 30 min preincubation, mean ± SD of three independent measurements in duplicates
[7] = Homo sapiens, NCI-H1975, 96 h, read-out: EGFR CTG EC50 H1975, H1975, 96 hours, CellTiter-Glo
[8] = NCI-H358, H358, 96 hours, CellTiter-Glo
[9] = read-out: EGFR CTG EC50 H1975, H1975, 96 hours, CellTiter-Glo

Sequence of EGFR-L858R/T790M (P00533 25-1210 T790M/L858R): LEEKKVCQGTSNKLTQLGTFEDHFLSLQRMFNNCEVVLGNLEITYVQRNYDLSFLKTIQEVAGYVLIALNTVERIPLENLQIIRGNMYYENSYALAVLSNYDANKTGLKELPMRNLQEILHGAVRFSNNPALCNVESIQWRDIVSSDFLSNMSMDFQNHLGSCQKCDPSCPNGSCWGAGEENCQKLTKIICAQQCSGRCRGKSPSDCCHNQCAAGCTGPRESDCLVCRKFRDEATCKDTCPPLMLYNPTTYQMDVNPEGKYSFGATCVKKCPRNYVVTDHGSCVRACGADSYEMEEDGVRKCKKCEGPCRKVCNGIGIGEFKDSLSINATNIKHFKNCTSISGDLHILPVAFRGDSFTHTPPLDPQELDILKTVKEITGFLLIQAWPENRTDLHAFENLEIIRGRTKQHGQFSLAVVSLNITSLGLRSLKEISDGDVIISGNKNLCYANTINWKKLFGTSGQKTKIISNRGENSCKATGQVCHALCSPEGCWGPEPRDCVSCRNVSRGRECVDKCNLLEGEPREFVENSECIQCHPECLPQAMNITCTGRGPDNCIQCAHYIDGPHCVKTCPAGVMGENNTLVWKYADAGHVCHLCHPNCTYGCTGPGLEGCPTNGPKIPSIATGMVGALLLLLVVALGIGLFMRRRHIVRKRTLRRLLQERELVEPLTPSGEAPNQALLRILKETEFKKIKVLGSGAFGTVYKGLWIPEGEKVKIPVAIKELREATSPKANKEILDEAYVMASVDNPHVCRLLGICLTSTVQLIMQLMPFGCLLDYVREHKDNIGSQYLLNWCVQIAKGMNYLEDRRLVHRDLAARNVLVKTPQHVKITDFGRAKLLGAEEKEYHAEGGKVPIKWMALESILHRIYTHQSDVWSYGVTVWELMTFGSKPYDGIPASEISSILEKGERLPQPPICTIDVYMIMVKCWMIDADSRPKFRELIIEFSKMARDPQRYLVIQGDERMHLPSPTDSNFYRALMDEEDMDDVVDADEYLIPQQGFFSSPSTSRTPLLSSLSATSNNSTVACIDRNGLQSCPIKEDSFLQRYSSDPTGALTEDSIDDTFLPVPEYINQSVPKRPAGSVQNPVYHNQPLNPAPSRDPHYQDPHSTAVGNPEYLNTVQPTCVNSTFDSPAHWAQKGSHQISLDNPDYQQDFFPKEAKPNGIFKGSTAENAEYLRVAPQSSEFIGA
Sequence of EGFR-wt (P00533 25-1210): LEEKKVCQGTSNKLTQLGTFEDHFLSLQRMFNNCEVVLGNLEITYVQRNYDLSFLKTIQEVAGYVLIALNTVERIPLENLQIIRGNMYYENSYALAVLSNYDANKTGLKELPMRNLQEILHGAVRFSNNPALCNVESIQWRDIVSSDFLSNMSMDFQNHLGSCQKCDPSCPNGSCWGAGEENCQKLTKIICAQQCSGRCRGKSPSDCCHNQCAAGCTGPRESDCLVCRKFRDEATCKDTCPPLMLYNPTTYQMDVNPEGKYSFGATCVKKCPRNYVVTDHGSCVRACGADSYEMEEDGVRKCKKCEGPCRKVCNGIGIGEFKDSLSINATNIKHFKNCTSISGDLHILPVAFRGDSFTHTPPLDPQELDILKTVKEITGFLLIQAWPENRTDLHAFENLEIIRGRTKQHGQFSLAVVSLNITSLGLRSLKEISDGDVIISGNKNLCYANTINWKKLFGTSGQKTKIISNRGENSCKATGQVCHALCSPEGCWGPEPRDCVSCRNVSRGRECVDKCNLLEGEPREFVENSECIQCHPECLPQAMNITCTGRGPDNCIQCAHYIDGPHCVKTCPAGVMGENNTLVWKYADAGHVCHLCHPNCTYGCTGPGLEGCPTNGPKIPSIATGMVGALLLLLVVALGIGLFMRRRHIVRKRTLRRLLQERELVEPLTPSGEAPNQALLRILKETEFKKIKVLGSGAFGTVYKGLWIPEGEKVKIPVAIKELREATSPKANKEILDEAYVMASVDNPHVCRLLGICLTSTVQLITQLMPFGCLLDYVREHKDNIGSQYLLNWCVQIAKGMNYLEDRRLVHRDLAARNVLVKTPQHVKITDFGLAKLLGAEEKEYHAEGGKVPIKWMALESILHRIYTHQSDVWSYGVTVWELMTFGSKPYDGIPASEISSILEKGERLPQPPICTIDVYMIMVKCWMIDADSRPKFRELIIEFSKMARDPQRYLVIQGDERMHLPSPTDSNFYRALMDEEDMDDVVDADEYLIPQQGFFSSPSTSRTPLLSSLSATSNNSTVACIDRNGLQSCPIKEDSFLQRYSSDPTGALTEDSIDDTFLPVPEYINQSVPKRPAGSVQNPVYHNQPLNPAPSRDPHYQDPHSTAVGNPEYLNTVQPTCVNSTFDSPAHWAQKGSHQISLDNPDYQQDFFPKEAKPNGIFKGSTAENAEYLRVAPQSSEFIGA
Sequence of EGFR-L858R (P00533 25-1210 L858R): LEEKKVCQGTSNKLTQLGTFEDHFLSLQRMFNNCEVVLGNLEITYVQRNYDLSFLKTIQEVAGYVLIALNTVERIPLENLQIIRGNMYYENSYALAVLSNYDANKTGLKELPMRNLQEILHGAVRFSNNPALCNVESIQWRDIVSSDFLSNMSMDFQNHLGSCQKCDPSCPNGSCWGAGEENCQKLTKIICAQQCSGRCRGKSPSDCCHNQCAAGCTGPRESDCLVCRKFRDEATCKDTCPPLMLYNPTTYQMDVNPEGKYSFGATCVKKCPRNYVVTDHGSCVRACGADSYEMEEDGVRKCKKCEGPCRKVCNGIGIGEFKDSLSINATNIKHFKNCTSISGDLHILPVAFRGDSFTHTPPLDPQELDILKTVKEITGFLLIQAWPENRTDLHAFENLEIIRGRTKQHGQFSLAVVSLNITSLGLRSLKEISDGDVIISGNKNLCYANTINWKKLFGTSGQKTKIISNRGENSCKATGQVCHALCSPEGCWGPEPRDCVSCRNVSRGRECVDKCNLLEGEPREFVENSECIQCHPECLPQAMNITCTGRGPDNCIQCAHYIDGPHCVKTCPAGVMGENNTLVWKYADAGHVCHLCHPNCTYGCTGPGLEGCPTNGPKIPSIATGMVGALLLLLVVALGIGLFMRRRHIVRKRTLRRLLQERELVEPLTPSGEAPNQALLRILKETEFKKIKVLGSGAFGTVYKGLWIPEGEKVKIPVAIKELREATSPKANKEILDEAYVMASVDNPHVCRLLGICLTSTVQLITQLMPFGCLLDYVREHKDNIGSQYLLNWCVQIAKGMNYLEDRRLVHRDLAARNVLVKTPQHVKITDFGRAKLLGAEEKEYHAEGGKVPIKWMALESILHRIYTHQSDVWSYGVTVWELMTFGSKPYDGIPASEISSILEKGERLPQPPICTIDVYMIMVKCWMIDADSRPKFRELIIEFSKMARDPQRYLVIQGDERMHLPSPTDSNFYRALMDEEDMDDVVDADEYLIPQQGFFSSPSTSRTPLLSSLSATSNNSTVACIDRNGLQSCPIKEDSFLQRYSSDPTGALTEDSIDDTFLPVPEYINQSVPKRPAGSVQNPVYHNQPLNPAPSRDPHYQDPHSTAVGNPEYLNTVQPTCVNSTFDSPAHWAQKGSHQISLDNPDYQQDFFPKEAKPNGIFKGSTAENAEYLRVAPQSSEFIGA

Row | Compound | microsomal CLint at 3 µM [1] [µL/min/mg] | EC50 (A549 cells (KRAS mutant)) [nM] | EC50 [2] [nM] | IC50 (EGFR-wt; [5]) [nM] | IC50 (EGFR-L858R/T790M; [6]) | EC50 [3, 7] [nM] | EC50 [4] [nM] | IC50 (EGFR-L858R) [nM] | EC50 (H358 cells (KRAS mutant); [8]) [nM] | EC50 [3, 9] [nM] | IC50 (EGFR-wt; IC50 EGFR-wt, rounded value) [nM] | EC50 ([3]; Homo sapiens, NCI-H1975, read-out: EC50 / potency in H1975 cells, H1975, rounded value in running text) [nM] | EC50 (H358 cells (KRAS mutant); NCI-H358, 96 h) [nM] | IC50 (EGFR-L858R/T790M; IC50 gatekeeper mutant EGFR, rounded value) [nM]
1 | C=CC(=O)Nc1cccc(-c2c(-c3ccc(N4CCN(C)CC4)cc3)[nH]c3ncn(Cc4ccccc4)c(=O)c23)c1 [Compound 29l] |  | 25200 ± 8250 | 1080 ± 169 | 1 ± 0.2 | > 1 nM and 21 nM | 1570 ± 260 | 44 ± 26 | 1.5 ± 0.8 | > 30000 |  |  |  |  | 
2 | C=CC(=O)Nc1cccc(-c2c(-c3ccc(N4CCN(C)CC4)cc3)[nH]c3ncnc(OC4CCCC4)c23)c1 [Compound 19f] | 128 |  | 1790 ± 744 | 0.2 | < 0.1 nM | 107 ± 45 |  | < 0.1 |  |  |  |  |  | 
3 | C=CC(=O)Nc1cccc(-c2c(-c3ccc(N4CCN(C)CC4)cc3)[nH]c3ncn(CCCSC)c(=O)c23)c1 [Compound 29f] |  | 24700 ± 7550 |  | 4.6 ± 1.1 | 20 ± 6 nM |  | 134 | 1.7 ± 0.5 | 11900 |  |  |  |  | 
4 | C=CC(=O)Nc1cc(-c2c(-c3ccc(N4CCN(C)CC4)cc3)[nH]c3ncnc(OC)c23)ccc1OC(C)COC (stereo not drawn) [Compound 20b] | 8 | 5850 | 1320 ± 777 | 0.2 ± 0.2 | 0.1 ± 0.1 nM | ~300 | < 14 | < 0.1 | 4470 | 375 ± 252 |  |  |  | 
5 | Cc1cc(C(=O)Nc2nc3cccc(Cl)c3n2[C@@H]2CCCCN(C(=O)/C=C/CN(C)C)C2)ccn1 [EGF816, nazartinib, reference compound] |  |  | 4380 ± 1390 |  |  | 296 ± 64 | < 14 |  |  |  |  |  |  | 
6 | CCC(=O)Nc1cccc(-c2c(-c3ccc(N4CCN(C)CC4)cc3)[nH]c3ncn(C)c(=O)c23)c1 [Compound 19b] |  | 6260 ± 1090 | 9730 ± 4020 | 996 ± 395 | 305 ± 192 nM |  | 1790 ± 727 | 147 ± 97 | 10200 ± 2240 |  |  |  |  | 
7 | C=CC(=O)Nc1cccc(-c2c(-c3ccccc3)[nH]c3ncnc(OC)c23)c1 [Compound 1a] | 156 | > 30000 | > 30000 | 1200 ± 87 | 176 ± 33 nM |  | 827 ± 234 | 133 ± 57 | > 30000 |  | ~1000 |  |  | 
8 | COc1ncnc2[nH]c(-c3ccc(C)cc3)c(-c3cccc(NC(=O)C=CCN4CCCCC4)c3)c12 [Compound 10c] |  | 4480 ± 896 | 2750 ± 1220 | 220 ± 57 | 158 ± 16 nM | 1900 ± 269 | 253 ± 1 | 197 ± 11 | 4250 ± 336 |  |  | ~2000 |  | 
9 | CCC(=O)Nc1cccc(-c2c(-c3ccc(CN4CCN(C)CC4)cc3)[nH]c3ncnc(OC)c23)c1 [Compound 17b] |  | 5730 ± 1430 | 5670 ± 60 | 460 ± 162 | 302 ± 84 nM | 9610 ± 1120 | 1520 ± 399 | 116 ± 57 | 10300 ± 2170 |  |  |  |  | 
10 | C=CC(=O)Nc1cccc(Nc2nc(Nc3ccc(N4CCN(C(C)=O)CC4)cc3OC)ncc2C(F)(F)F)c1 [Rociletinib, rociletinib, reference compound] |  |  | 1910 ± 467 |  |  | 145 ± 86 | 45 ± 11 |  |  |  |  |  |  | 
11 | C=CC(=O)Nc1cccc(-c2c(-c3ccc(N4CCN(C)CC4)cc3)[nH]c3nc[nH]c(=O)c23)c1 [Compound 19i] |  | > 30000 |  | 12 ± 4 | 24 ± 12 nM |  | 557 ± 266 | 12 ± 4 | > 30000 |  |  |  |  | 
12 | C=CC(=O)Nc1cccc(-c2c(-c3ccc(N4CCN(C)CC4)cc3)[nH]c3ncn(CC(C)C)c(=O)c23)c1 [Compound 29h] |  | 6140 ± 2120 | 1100 ± 506 | 0.8 ± 0.2 | > 1 nM and 3.4 nM | 686 ± 199 | 45 ± 7 | 0.2 ± 0.1 | 6840 ± 866 |  |  |  |  | 
13 | CCC(=O)Nc1cccc(-c2c(-c3ccccc3)[nH]c3ncnc(OC)c23)c1 [Compound 1b] |  | > 30000 | > 30000 | 5370 ± 1920 | 3960 ± 614 nM | > 30000 |  | 1700 ± 747 | > 30000 |  | 5000 |  |  | 4000
14 | C=CC(=O)Nc1cccc(-c2c(-c3ccc(N4CCN(C)CC4)cc3)[nH]c3ncn(C)c(=O)c23)c1 [Compound 29a] |  | 8820 ± 697 | 1140 ± 350 | 1.2 ± 0.1 | 0.5 nM | < 200 | 82 ± 20 | 0.5 | 9510 ± 403 | 188 ± 64 |  |  |  | 
15 | C=CC(=O)Nc1cccc(-c2c[nH]c3ncnc(OC)c23)c1 [Compound 9] |  | 13600 ± 1400 |  | 82 ± 4 | < 100 nM and 31 nM | 9910 ± 3390 | 2170 ± 968 | 14 ± 2 | 24500 ± 4870 |  |  |  |  | 
16 | C=CC(=O)Nc1cccc(-c2c(-c3ccc(N4CCN(C)CC4)cc3)[nH]c3ncn(CCSC)c(=O)c23)c1 [Compound 29e] |  | 22400 ± 11200 | 1870 ± 595 | 0.4 ± 0.1 | 0.9 ± 0.1 nM | 723 ± 188 | < 14 | 0.1 ± 0.1 | > 30000 |  |  |  |  | 

More lines, in order of falling EC50 (A549 cells (KRAS mutant)), values ahead:

Row | microsomal CLint at 3 µM [1] [µL/min/mg] | EC50 (A549 cells (KRAS mutant)) [nM] | EC50 [2] [nM] | IC50 (EGFR-wt; [5]) [nM] | IC50 (EGFR-L858R/T790M; [6]) | EC50 [3, 7] [nM] | EC50 [4] [nM] | IC50 (EGFR-L858R) [nM] | EC50 (H358 cells (KRAS mutant); [8]) [nM] | EC50 [3, 9] [nM] | IC50 (EGFR-wt; IC50 EGFR-wt, rounded value) [nM] | EC50 ([3]; Homo sapiens, NCI-H1975, read-out: EC50 / potency in H1975 cells, H1975, rounded value in running text) [nM] | EC50 (H358 cells (KRAS mutant); NCI-H358, 96 h) [nM] | IC50 (EGFR-L858R/T790M; IC50 gatekeeper mutant EGFR, rounded value) [nM] | Compound
17 |  | 3970 ± 720 | 1790 ± 1090 |  |  | 4680 ± 1030 | 16 ± 3 |  | 3780 ± 383 |  |  |  |  |  | CCN1CCN(Cc2ccc(-c3cc4c(N[C@H](C)c5ccccc5)ncnc4[nH]3)cc2)CC1 [AEE788, reference compound]
18 |  | 3010 ± 916 | 3680 ± 500 | 0.2 | 0.1 ± 0.1 nM | 281 ± 88 | < 14 | < 0.1 | 2570 ± 338 |  |  |  |  |  | C=CC(=O)Nc1cccc(-c2c(-c3ccc(N4CCN(C)CC4)cc3)[nH]c3ncnc(OCCCSC)c23)c1 [Compound 19e]
19 |  | 2970 ± 1070 | 767 ± 151 | 0.2 | 4.5 ± 0.8 nM | 550 ± 157 | < 14 | 0.3 ± 0.3 | 3270 ± 693 |  |  |  |  |  | C=CC(=O)Nc1cccc(-c2c(-c3ccc(N4CCN(C)CC4)cc3)[nH]c3ncn(CCCC)c(=O)c23)c1 [Compound 29d]
20 | 6 | 1490 ± 430 |  |  |  |  |  |  |  |  |  |  | 1330 ± 515 |  | CN(C)C/C=C/C(=O)Nc1cc2c(Nc3ccc(F)c(Cl)c3)ncnc2cc1O[C@H]1CCOC1 [Afatinib, afatinib, reference compound]
21 |  | 1390 | 1020 ± 335 | 5.1 ± 0.1 | 4.9 ± 1.3 nM | 183 ± 48 | 22 ± 2 | 4 ± 2.7 | 2040 |  |  |  |  |  | C#CCn1cnc2[nH]c(-c3ccc(N4CCN(C)CC4)cc3)c(-c3cccc(NC(=O)C=C)c3)c2c1=O [Compound 29c]
22 |  | 1380 ± 985 | 453 ± 218 | 1.1 ± 0.8 | > 1 nM and 7.7 nM | 228 ± 73 | < 14 | 0.9 ± 0.6 | 1790 ± 520 |  |  |  |  |  | C=CC(=O)Nc1cccc(-c2c(-c3ccc(N4CCN(C)CC4)cc3)[nH]c3ncn(CC4CC4)c(=O)c23)c1 [Compound 29k]
23 | 50 | 1130 ± 176 | 1530 ± 273 | < 0.1 | < 0.1 nM | 64 ± 8 | < 14 | < 0.1 | 1640 ± 813 |  |  |  |  |  | C=CC(=O)Nc1cccc(-c2c(-c3ccc(N4CCN(C)CC4)cc3)[nH]c3ncnc(OCCCC)c23)c1 [Compound 19d]
24 |  | 1020 ± 46 | 759 ± 394 | 0.2 ± 0.1 | 0.1 ± 0.1 nM | 64 ± 25 | < 14 | < 0.1 | 1660 ± 759 |  |  |  |  |  | C=CC(=O)Nc1cccc(-c2c(-c3ccc(N4CCN(C)CC4)cc3)[nH]c3ncnc(OCC)c23)c1 [Compound 19c]
25 |  | 956 |  | 0.2 ± 0.1 | < 0.1 nM | ~300 | < 14 | < 0.1 | 1100 | 298 ± 251 |  |  |  |  | C=CC(=O)Nc1cc(-c2c(-c3ccc(N4CCN(C)CC4)cc3)[nH]c3ncnc(OC)c23)ccc1OCCOC [Compound 20a]
26 |  | 840 ± 289 | 638 ± 247 | 0.4 | 0.2 nM | 60 ± 8 | < 14 | 0.1 | 1670 ± 721 |  |  |  |  |  | C=CC(=O)Nc1cccc(-c2c(-c3ccc(N4CCN(C)CC4)cc3)[nH]c3ncnc(OC)c23)c1 [Compound 19a]
